These results are taken from paper PMC6891570, “Yuccalechins A–C from the Yucca schidigera Roezl ex Ortgies Bark: Elucidation of the Relative and Absolute Configurations of Three New Spirobiflavonoids and Their Cholinesterase Inhibitory Activities” (Molecules, 2019).

Structures are written as SMILES. Read-outs that look alike come from different tables or passages of the source.

The target in experiment [1] is T1, horse serum BChE (EC 3.1.1.8) (Equus caballus, UniProt P81908).
T1 construct: horse serum BChE (EC 3.1.1.8, Sigma, St. Louis, MO, USA) were used as the enzyme sources; purchased Sigma, St. Louis, MO, USA; host or cells: horse serum
The experiment is described as follows: BChE inhibition, modified Ellman's spectrophotometric assay. Conditions: for inhibition at 1000 µM: read-out: Inhibition (% ± S.D.) BChE. In kind it is biochemical. As to the method: (§1) The modified Ellman’s assay was used to measure the anti-acetylcholinesterase and anti-butyrylcholinesterase activities of 13, 26, and 29 [81, 82].
(§2) AChE and BChE inhibitory activities were measured by a slightly modified spectrophotometric method of Ellman et al.. Electric eel AChE (Type-VI-S, EC 3.1.1.7, Sigma, St. Louis, MO, USA) and horse serum BChE (EC 3.1.1.8, Sigma, St. Louis, MO, USA) were used as the enzyme sources, while acetylthiocholine iodide and butyrylthiocholine chloride (Sigma, St. Louis, MO, USA) were employed as the substrates of the reaction. 5,5′-Dithio-bis(2-nitrobenzoic) acid (DTNB, Sigma, St. Louis, MO, USA) was used to measure the anticholinesterase activity as the coloring agent. All reagents and conditions were exactly the same as described in our previous publication. Hydrolysis of acetylthiocholine iodide/butyrylthiocholine chloride was monitored by the formation of the yellow 5-thio-2-nitrobenzoate anion, as a result of the reaction of DTNB with thiocholines, catalyzed by enzymes at 412 nm utilizing a 96-well microplate reader (VersaMax Molecular Devices, USA). The measurements and calculations were evaluated by using Softmax PRO 4.3.2.LS software. The percent inhibitions of AChE/BChE were determined by comparing the reaction rates of the samples relative to a blank sample (ethanol in phosphate buffer pH = 8), using the formula (E − S)/E × 100, where E is the activity of enzyme without test sample, and S is the activity of the enzyme with the test sample. The experiments were conducted in six replicates. Galantamine (Sigma, St. Louis, MO, USA) was used as the reference.
(In general: In Ellman's method for cholinesterases, released thiocholine reacts with DTNB.)

Experiment [2] addresses T2, Electric eel AChE (Type-VI-S, EC 3.1.1.7) (Electrophorus electricus, UniProt O42275).
T2 construct: purchased Sigma, St. Louis, MO, USA Type-VI-S (catalogue number not given)
As to the kind of experiment: biochemical. Conditions: for inhibition at 1000 µM: at 1000 µM final concentration, six replicates, read-out: Inhibition (% ± S.D.) AChE. It counts as biochemical. As to the method:
as §1, §2

For experiment [3], the system named is AChE/BChE. Conditions: previous results; cited from earlier work.
The mark [4] stands for this setting: at 1000 µM final concentration, six replicates.

T1 sequence (P81908 whole entry): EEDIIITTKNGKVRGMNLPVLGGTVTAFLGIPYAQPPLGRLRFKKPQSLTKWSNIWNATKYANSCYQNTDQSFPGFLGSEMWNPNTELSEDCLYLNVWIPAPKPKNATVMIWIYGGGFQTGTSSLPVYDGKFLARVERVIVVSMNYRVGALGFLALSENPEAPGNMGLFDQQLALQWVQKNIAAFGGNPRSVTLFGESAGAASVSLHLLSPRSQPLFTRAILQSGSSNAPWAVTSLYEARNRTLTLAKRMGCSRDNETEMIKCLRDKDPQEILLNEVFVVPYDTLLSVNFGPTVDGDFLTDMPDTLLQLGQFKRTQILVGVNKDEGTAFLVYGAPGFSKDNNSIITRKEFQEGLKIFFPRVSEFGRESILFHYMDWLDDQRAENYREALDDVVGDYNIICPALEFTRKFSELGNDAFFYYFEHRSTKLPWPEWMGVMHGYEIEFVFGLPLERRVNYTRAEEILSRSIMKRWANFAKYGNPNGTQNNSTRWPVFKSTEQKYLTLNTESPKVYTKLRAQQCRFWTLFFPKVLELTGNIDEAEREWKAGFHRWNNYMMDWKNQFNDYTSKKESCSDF
T2 sequence (O42275 24-633): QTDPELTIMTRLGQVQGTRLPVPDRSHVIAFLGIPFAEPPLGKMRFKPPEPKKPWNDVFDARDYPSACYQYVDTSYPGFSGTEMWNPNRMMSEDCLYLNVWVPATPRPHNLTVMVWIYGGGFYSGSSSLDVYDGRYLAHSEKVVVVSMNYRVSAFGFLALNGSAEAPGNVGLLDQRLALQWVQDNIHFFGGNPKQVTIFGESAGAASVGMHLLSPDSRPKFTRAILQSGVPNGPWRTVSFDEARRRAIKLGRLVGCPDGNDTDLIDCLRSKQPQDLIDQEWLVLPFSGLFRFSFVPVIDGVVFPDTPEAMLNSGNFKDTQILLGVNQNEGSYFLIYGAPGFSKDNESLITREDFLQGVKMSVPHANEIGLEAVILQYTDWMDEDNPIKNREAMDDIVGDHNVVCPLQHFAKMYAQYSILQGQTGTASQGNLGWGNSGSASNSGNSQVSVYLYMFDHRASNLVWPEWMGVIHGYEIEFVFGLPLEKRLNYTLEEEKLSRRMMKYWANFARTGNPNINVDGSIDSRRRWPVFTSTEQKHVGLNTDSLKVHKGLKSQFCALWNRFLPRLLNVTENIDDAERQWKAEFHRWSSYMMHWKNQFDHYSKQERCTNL

Broadly, the inhibition is the relative decrease from the control value, in per cent. For `COc1ccc2c3c1O[C@H]1C[C@@H](O)C=C[C@@]31CCN(C)C2` [Reference, Galantamine HBr, reference compound], the inhibition at 1000 µM in experiment [1] came to 91.5 ± 1.63%.
Broadly, the IC50 is the concentration needed to halve the response being measured. A lower IC50 goes with greater potency. Turning to `O=C1Oc2cc(O)c3c(c2[C@]12c1c(O)cc(O)cc1O[C@H]2c1ccc(O)cc1)O[C@H](c1ccc(O)cc1)[C@@H](O)C3` [Compound 29, (2S,2′R,3S,3′S)-3′,4,5′,6-tetrahydroxy-2,2′-bis(4-hydroxyphenyl)-3′,4′-dihydro-2H,2′H,8′H-spiro[benzofuran-3,9′-furo[2,3-h]chromen]-8′-one], in experiment [1] (setting [4]), the inhibition at 1000 µM was found to be 33.4 ± 1.37%. Further, in experiment [2], the IC50 is 655 µM; the “activity against AChE (in words)” value was “very low and selective activities”; the inhibition at 1000 µM amounted to 52.5 ± 2.6%.
On to `Oc1ccc(/C=C/c2cc(O)cc(O)c2)cc1` [Compound 21, Trans-resveratrol], for which, in experiment [3], the “cholinesterase inhibitory activity (in words)” value is “very weak activity”.
For `COc1c(O)cc(/C=C/c2cc(O)cc(O)c2)cc1O` [Compound 13, trans-3,3′,5,5′-tetrahydroxy-4′-methoxystilbene], in experiment [1], the “activity against BChE (in words)” value was “almost inactive”. For the same molecule, in experiment [1] (setting [4]), the inhibition at 1000 µM turned out to be 25.2 ± 2.58%. For the same molecule, in experiment [2], the “activity against AChE (in words)” value is “almost inactive” and the inhibition at 1000 µM worked out at 19.3 ± 3.03%.
Consider `Oc1cc(O)cc(/C=C/c2ccc(O)c(O)c2)c1` [piceatannol, trans-3,3′,4′,5-tetrahydroxystilbene, reference compound], for which the “cholinesterase inhibitory activity (in words)” value in experiment [3] is listed as “much higher, selective against BChE, activity”.
Take `O=C1Oc2cc(O)c3c(c2C12c1c(O)cc(O)cc1OC2c1ccc(O)cc1)OC(c1ccc(O)cc1)C(O)C3` [Compound 26, (2S,2′R,3R,3′S)-3′,4,5′,6-tetrahydroxy-2,2′-bis(4-hydroxyphenyl)-3′,4′-dihydro-2H,2′H,8′H-spiro[benzofuran-3,9′-furo.[2,3-h]chromen]-8′-one]: in experiment [1] (setting [4]), the inhibition at 1000 µM amounted to 48.5 ± 2.29%. Further, in experiment [2], the IC50 was 294 µM; the “activity against AChE (in words)” value was “very low and selective activities”; the inhibition at 1000 µM came out at 80.5 ± 1.22%.
